“Also recorded” adds a separate entry of the source.
Tests used:
Assay type in all cases: in vivo, rat
[1] = system: panic-prone (1-AG treated) rats; assay: Sodium lactate (NaLac) challenge in panic-prone rats: radio-telemetry of locomotor and cardiovascular (HR, MAP) responses
Protocol: Telemetry probes (Data Science International, St. Paul Minn.) were surgically implanted into the abdomen of anaesthetize rats to measure locomotor responses. Cardiovascular responses were measured by a femoral arterial line connected to the telemetric probe which contained a pressure transducer (Data Science International, St. Paul Minn.).
The minipump was then sutured into place subcutaneously at the nape of the neck. The concentration of the solutions was such that 3.5 nmol/[…] per hour of 1-AG or d-AG was infused continuously into the DMH/PeF region for the remainder of the given experiment. In the case of the siRNA experiments specialized T-cannulae were implanted permitting access to a removable 28 g injector to direct siRNA injections to the same location as the 1-AG infusions. Additionally these rats had guide cannulae directed to the opposite DMH/PeF for bilateral infusion of siRNA.
Rats received intravenous (i.v.) infusions (10 ml over 15 min of either 0.5M NaLac or 0.9% isotonic saline (when applicable)) using a syringe pump at least five days following the initiation of 1-AG or d-AG infusions. Once a stable baseline was achieved, i.v. infusions began and cardiovascular and activity data were recorded for 15 min (similar to clinical NaLac infusions).
Cardiovascular responses (i.e., MAP and HR) were measured by a femoral arterial line connected to a telemetric probe which contained a pressure transducer (Cat. no. C50-PXT, Data Science International (DSI) St. Paul Minn.). […] MAP and HR were recorded continuously in freely moving conscious rats and are expressed as a 20 min time course. The data reported are changes in HR and MAP from the average of the baseline (t−5 to t−1) from each rat. […]
(§1) In experiments 4-6, rats were made panic vulnerable with 1-AG. 5 days after 1-AG onset, in a counterbalanced design, rats received intraperitoneal (i.p.) injections of treatment drug or vehicle 30 min prior to i.v. infusions. […] In experiment 5, baseline in an open field (OF) behavior test of anxiety was assessed (n=8) prior to 1-AG infusions. […] Immediately following the NaLac challenge, rats were placed in the OF test. […] In experiment 6,1-AG treated rats received an injection of an alternative ORX1 receptor antagonist (30 mg/kg SB408124 (N-(6,8-Difluoro-2-methyl-4-quinolinyl)-N′-(4-(dimethylamino)phenyl)urea), Tocris, in 0.2 ml/100 g volume DMSO, n=4) or vehicle (0.2 ml/100 g volume DMSO, n=6) 30 min prior to NaLac. In experiment 7, control rats (no 1-AG or NaLac treatment) were assessed in a SI test.
Adult male Sprague-Dawley rats were anesthetized and surgically implanted with telemetrical probes to measure cardiovascular activity prior to and during lactate infusions. After a 3 day recovery, rats were anaesthetized and had osmotic minipumps (previously filled with 1-AG) stereotaxically implanted unilaterally into the DMH. […] 1960, Tocris, in 0.2 ml/100 g volume DMSO, n=12], alprazolam (3 mg/kg, Sigma, in 0.2 ml/100 g volume DMSO, n=6) or vehicle (0.2 ml/100 g volume DMSO, n=11) 30 min prior lactate challenge.

FG-7142 treated rats = assay: FG-7142-induced anxiety: open field, social interaction and elevated plus maze tests; conditions: Wistar rats
Protocol: All experiments were conducted on adult male Wistar rats (250-300 g) purchased from Harlan Laboratories (Indianapolis, Ind. USA) and were housed individually in plastic cages under standard environmental conditions (22° C.; 12/12 light/dark cycle; lights on at 7:00 A.M.) for 7-10 days prior to the surgical manipulations. Food and water were provided ad libitum.
The open-field arena covered an area of 90 cm×90 cm, with 40 cm high walls. The open-field arena was divided into a 6×6 grid of equally-sized squares using black tape (36 total squares) with 4 squares forming the centre; 12 squares forming the middle perimeter; and 20 squares forming the outer perimeter. The test started by placing a rat in the centre. The behavior of each rat in the open-field arena was recorded on video and scored afterwards by an observer blind to the experimental treatment of each rat. Time spent in each region of the open-field was recorded. In addition, locomotor activity was assessed by counting the number of times the rat's entire body (excluding tail) completely crossed into another square.
Following the OFT, the experimental rat was placed in an open field (0.9 m long×0.9 m wide with walls 0.3 m high) with an untreated novel partner rat. A video camera was fixed above the box, and all behavioral tests were videotaped. During the 5 min test the total amount of time the treated rat initiates interaction with the partner rat is recorded (sniffing, grooming etc.) as described previously. Videotaped sessions were scored at a later time by a SDF (blind to treatments) and a decrease in total interaction time was taken as an increase in “anxiety” like behavior.
Following the SI test, rats were place in the center area of the EPM where the two arms intersect. Unlike the SI test, the EPM measures many relevant anxiety related behaviors such as: no. of poke and full entries into and duration spent in closed versus open arm. […] Activity is measured using […] state of the art photobeams (16× beams and 16 Y beams) to provide the highest resolution system available (Automated EPM, Hamilton Kinder Scientific, San diego, CA).

control rats = assay: Baseline behavior and cardiovascular activity in control rats; conditions: control rats (no 1-AG or NaLac), 30 mg/kg i.p., 30 min following injection
Protocol: as §1
Adult male Sprague-Dawley rats were anesthetized and surgically implanted with telemetrical probes to measure cardiovascular activity prior to and during lactate infusions. […] 1960, Tocris, in 0.2 ml/100 g volume DMSO, n=7] or vehicle (0.2 ml/100 g volume DMSO, n=7). Cardiovascular activity and SI tests were monitored 30 min following injection at similar time points.

[2] = 30 mg/kg i.p., experiment 5 (open field cohort)
[3] = i.p. 30 min prior to NaLac, SB334867/SB408124 30 mg/kg, alprazolam 3 mg/kg, experiments 4 and 6

## Cc1nc2ccc(NC(=O)Nc3ccnc4cccnc34)cc2o1 [SB334867, N-(2-Methyl-6-benzoxazolyl)-N′-1,5-naphthyridin-4-yl urea]
[1]; [2]
  NaLac induced increases in heart rate (HR): attenuated
  NaLac induced increases in mean arterial blood pressure (MAP): attenuated
[1]; [3]
  NaLac induced increases in heart rate (HR): attenuated; also recorded: blocked
  NaLac induced increases in mean arterial blood pressure (MAP): attenuated; also recorded: blocked
FG-7142 treated rats; FG-7142 7.5 mg/kg ip, with or without SB334867 30 mg/kg ip
  time in open arms of elevated plus maze: higher time in open arms
FG-7142 treated rats; SB334867 30 mg/kg ip followed by FG-7142 7.5 mg/kg ip
  FG-7142-induced anxiety behavior in the social interaction test: blocked
FG-7142 treated rats; SB334867 30 mg/kg ip followed by FG-7142 7.5 mg/kg ip, 15 min after FG-7142
  FG-7142 induced anxiety in the open field test: appeared to have attenuated
Control rats
  HR in control rats: had no effect; also recorded: does not alter; also recorded: did not alter
  MAP in control rats: had no effect; also recorded: does not alter; also recorded: did not alter
